Laboratory results published in PMC3326534 (Biochemistry, 2007).
Like-named read-outs stand apart in the source and are kept apart here.

How the values were obtained:
Type in all cases: binding
PrnB [1] = molecular target: PrnB (Pseudomonas fluorescens, UniProt P95481, C21S/C60S/C175S); assay: crystal structure
PrnB [2] = molecular target: T1, PrnB (Pseudomonas fluorescens, UniProt P95481, C175S/C21S/C60S); assay: spectrophotometric ligand titration
PrnB [3] = molecular target: T1, PrnB; assay: spectrophotometric ligand titration; remark: listed apart in the source
PrnB [4] = molecular target: T1, PrnB; assay: spectrophotometric ligand titration; remark: listed apart in the source

T1 sequence (P95481 whole entry C175S/C21S/C60S): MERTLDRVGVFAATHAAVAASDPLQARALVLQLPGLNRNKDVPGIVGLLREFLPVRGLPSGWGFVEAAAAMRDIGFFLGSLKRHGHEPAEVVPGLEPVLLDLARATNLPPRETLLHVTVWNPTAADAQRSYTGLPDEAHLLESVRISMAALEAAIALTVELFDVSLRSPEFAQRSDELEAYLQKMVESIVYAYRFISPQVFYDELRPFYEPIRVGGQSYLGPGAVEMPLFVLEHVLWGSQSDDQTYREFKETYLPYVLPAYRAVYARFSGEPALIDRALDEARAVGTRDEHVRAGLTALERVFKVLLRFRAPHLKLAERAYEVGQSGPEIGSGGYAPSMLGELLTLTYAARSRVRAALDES
PrnB (Pseudomonas fluorescens, UniProt P95481, C21S/C60S/C175S), sequence (P95481 whole entry C21S/C60S/C175S): as the sequence (P95481 whole entry C175S/C21S/C60S) above

NC(Cc1c[nH]c2c(Cl)cccc12)C(=O)O (racemic) [7-Cl-D-tryptophan]
crystal structure (2.0 Å) (PrnB [1]): In the 7-Cl-D-tryptophan complex, one of the oxygen atoms of the carboxyl group is bound to the iron

N[C@@H](Cc1c[nH]c2c(Cl)cccc12)C(=O)O [7-Cl-L-tryptophan]
Kd (PrnB [2]): 4.9 µM

N[C@H](Cc1c[nH]c2ccccc12)C(=O)O [D-tryptophan]
Kd (PrnB [3]): 39 µM

N[C@@H](Cc1c[nH]c2ccccc12)C(=O)O [L-tryptophan]
Kd (PrnB [4]): 60 µM
